{"source": "patent US20150328183A1", "about": "“PHARMACEUTICAL COMPOSITION AND USE FOR APPLYING 7,7''-DIMETHOXYAGASTISFLAVONE IN INHIBITING TUMOR METASTASIS” (NATIONAL CHIAO TUNG UNIVERSITY, priority 2014, published 2015)", "key": {"[1]": {"tested_on": "B16F10 cells", "assay": "Anti-metastatic activity in mice bearing B16F10 tumors (tumor volume)", "format": "in vivo", "conditions": "C57BL/6 mice with B16F10 tumors, 10 mg/kg and 50 mg/kg DMGF injected once every 2 to 3 days", "method": "At least 3 8-week-old C57BL/6 mice (female) were i.v. injected with 1×10^6 B16F10 cells. Mice bearing tumors with more than 30 mm^3 were injected with PBS, 10 mg/kg DMGF and 50 mg/kg DMGF once every 2 to 3 days. […] That is, with reference to the result of example 5, pharmaceutical composition with DMGF indeed inhibits tumor cell migration, thus inhibiting tumor metastasis."}, "[2]": {"tested_on": "Aspergillus flavus", "conditions": "cited from earlier work"}, "[3]": {"tested_on": "SVEC4-10 mouse vascular endothelial cells", "assay": "Polymerization of fibrous actin (Phallotoxin/DAPI staining)", "format": "cell-based", "conditions": "SVEC4-10 cells, 16 ng/ml VEGF, 1 μg/ml DMGF, 3 to 4 hours", "method": "Tissue culture technology for culturing SVEC4-10 mouse vascular endothelial cells can be referred to the culturing method of B16F10 in example 2, and is not repeated here. SVEC4-10 cell suspension (3×10^4) were incubated in at least two plates and treated with 16 ng/ml VEGF (Upstate Inc., Lake Placid, N.Y., USA) medium in the two 96-well plate, and one of the plate was further added with 1 μg/ml DMGF as an experiment group. After adding the culture medium and the above-mentioned compound, SVEC4-10 cells were incubated in 37° C. incubator for 3 to 4 hours and then dyed with diamidino-phenyl-indole (DAPI) and Phallotoxin, respectively. Diamidino-phenyl-indole can be combined with double-stranded DNA to label the position of nucleus. Phallotoxin capable of combining with fibrous actin is often used as the dye for observing the polymerization of fibrous actin. After dyeing, the polymerization of fibrous actin was observed under 40 magnification microscopic lens.\n“A” (filaments or spot) in FIG.3 marks the structure of fibrous actin, and “B” (circle) in FIG. 3 marks the position of nucleus. […] Polymerization of fibrous actin is correlated with cell migration in which polymerization of fibrous actin happens. Cell migration is the early step of tumor metastasis."}, "[4]": {"tested_on": "TNF-α", "assay": "LPS-induced TNF-α secretion by mouse splenocytes (ELISA)", "format": "cell-based", "conditions": "1 μg/ml LPS, 1.25 μg/ml DMGF, 72 hours; group without DMGF up to 200 pg/ml", "method": "1×10^6 mouse splenocyte suspension was seeded in 24-well culture plate supplemented with 1 μg/ml lipopolysaccharide (LPS) for inducing the immune cells of mouse splenocyte secreting TNF-α, and 0, 0.3125, 0.625, 1.25 μg/ml DMGF to each group. The mouse splenocyte were further incubated in 37° C. incubator for 72 hours. The culture medium was collected and tested for TNF-α concentration by ELISA kit for detecting TNF-α.\nWith the use of increased DMGF dose level, the lower the TNF-α concentration. For example, mouse splenocyte treated with 1.25 μg/ml DMGF secreted TNF-α concentration fell to 60 pg/ml. With reference to the result of example 6, pharmaceutical composition with DMGF has the ability to inhibit immune cells secreting TNF-α to inhibit inflammation. Since inflammation is related to improving angiogenesis and invasion, migration or other pathological effects of tumor cells, pharmaceutical composition with DMGF has the ability to inhibit inflammation, thus inhibiting tumor metastasis."}, "[5]": {"tested_on": "Matrix metalloproteases-2 (MMP2) expression in B16F10 cells", "assay": "MMP2 RNA expression by real-time PCR", "format": "cell-based, mouse", "conditions": "1 μg/ml DMGF, 0 hour group defined as 1 times", "method": "Culturing condition of B16F10 cells with tissue culture techniques is the same as example 2. B16F10 cell suspension was incubated in at least three plates, two of which were added biflavonoid DMGF (final concentration 1 μg/ml) and set back to 37° C. incubator and incubating for 12 and 24 hours, respectively. The culture medium and additional compound were sucked, and then the plate was washed with PBS. B16F10 cells were collected with trypsin-EDTA. And the third well was processes without DMGF, colleting B16F10 cells according to the above-mentioned method. Then total B16F10 cellular RNA was extracted with TRIzol (Invitrogen Life Technologies, Carlsbad, Calif., USA) and reverse-transcribed into cDNA using the extracted RNA template. The cDNA was further a template for real-time polymerase chain reaction (Real-time PCR). The forward primer and the reverse primer of MMP2 were [NT] and [NT], repectively, thus quantified the MMP2 expression level in the above-mentioned time period of control group and experiment group of the present example. In detail, reverse-transcription PCR was treated with SuperScript First-Strand system (Invitrogen Life Technologies). […] While the MMP2 expression level of “0 hour” group is defined as 1 times, the MMP2 expression level of “12 hours” group and “24 hours” group are both calculated according to the “0 hour” group."}, "[6]": {"tested_on": "B16F10 mouse melanoma cells", "assay": "Transwell (matrigel-coated) migration assay for metastasis inhibition", "format": "cell-based", "conditions": "1 μg/ml DMGF, 4 hours, 8 μm film coated with matrigel, compared to the group without DMGF (100%)", "method": "B16F10 mouse melanoma cells were maintained in 1% antibiotics of Dulbecco's modified Eagle's medium (DMEM; Gibco/Invitrogen, Carlsbad, Calif., USA) supplemented with heat-inactivated 10% fetal bovine serum (Gibco/Invitrogen, Carlsbad, Calif., USA). Antibiotic were preferably penicillin/streptomycin/amphotericin. Cell suspension (3×10^4) were treated with or without 1 μg/ml DMGF in the upper well of a transwell plate. The well without DMGF was used as a control group of experiment. DMEM cell culture medium was added into the upper and lower wells, and the lower well was further added fetal bovine serum, and then maintained in the incubator under 37° C. In other embodiment, B16F10 cell suspension was allowed to incubate in the 4 or 6 upper wells of transwell plate to comduct second repeat or duplicate tests, which is not for limited sense of present invention.\nThe bottom side of the upper well, which is between the upper well and the lower well, includes a transparent film. The present example applied 8 μm (coated with matrigel) transparent films for tumor metastasis test. […] The cells on the top of the filter were removed with a cotton swab and migrated cells on the underside were fixed with methanol, stained with 50 μg/ml propidium iodide and counted with a fluorescence microscope. […]"}}, "data": [{"molecule": "COc1cc2oc(-c3ccc(O)cc3)cc(=O)c2c(O)c1-c1c(OC)cc(O)c2c(=O)cc(-c3ccc(O)cc3)oc12", "note": "[DMGF, 7,7″-Dimethoxyagastisflavone]", "values": [{"measurement": "tumor volume versus PBS-treated mouse", "setting": "[1]", "result": "significantly smaller"}, {"measurement": "inhibition of aflatoxin secretion", "setting": "[2]", "result": "inhibiting Aspergillus flavus secreting aflatoxin"}, {"measurement": "polymerization of fibrous actin", "setting": "[3]", "result": "multiple dots without polymerization of fibrous actin"}, {"measurement": "TNF-α concentration secreted by mouse splenocyte", "setting": "[4]", "result": 60, "unit": "pg/mL"}, {"measurement": "MMP2 RNA expression level relative to 0 hour group", "setting": "[5]; 12 hours", "result": 0.5, "unit": "times"}, {"measurement": "MMP2 RNA expression level relative to 0 hour group", "setting": "[5]; 24 hours", "result": 0.3, "unit": "times"}, {"measurement": "reduction in the capacity of B16F10 cells to migrate through the membrane of transwell chambers", "setting": "[6]", "result": "about 65%"}]}]}
